{
  "source": "patent US20060287342A1",
  "about": "“Triazolopyrimidine heterocycles as cannabinoid receptor modulators” (priority 2005, published 2006)",
  "origin": "cited, not measured here",
  "key": {"[1]": {"conditions": "chronic administration for two weeks"}, "human subjects": {"system": "human subjects", "conditions": "16 week trial period"}},
  "data": [
    {"molecule": "Cc1c(C(=O)NN2CCCCC2)nn(-c2ccc(Cl)cc2Cl)c1-c1ccc(I)cc1", "note": "[AM-251]", "values": [
      {"measurement": "body weight", "setting": "[1]", "value": "substantial body weight reduction"}
    ]},
    {"molecule": "Cc1c(C(=O)NN2CCCCC2)nn(-c2ccc(Cl)cc2Cl)c1-c1ccc(Cl)cc1", "note": "[SR-141716]", "values": [
      {"measurement": "body weight", "setting": "human subjects", "value": "dose-dependently reduced body weight"}
    ]}
  ]
}
